In patent publication US7732401B2, “Inhibitor of TGF-β activation reaction” (Riken, priority 2007, dated 2010):
“Also recorded” adds a separate entry of the source. Where no end group is shown, it is not given here.

Assays:
[1] = test system: endotoxin (LPS)-preadministered partially-hepatectomized mice; test: LPS-preadministered partially-hepatectomized mice model for impaired liver regeneration, PCNA staining; assay type: in vivo, mouse; settings: Example 5, 200 μg/head i.v., 8 times; for percentage of PCNA positive cells: 48 hours after PH, FIG. 10; for improvement of impaired liver regeneration caused by preadministration of LPS: PCNA staining, FIG. 9
Method: For the experiment, 26 five-week-old male C3H/HeN mice were used. After completion of quarantine and environmental acclimatization, the mice were divided into the following 5 groups according to the body weight of each mouse on the day of grouping. These include, a group to which saline was preadministered and saline was then administered (G1: n=6); a group to which LPS was preadministered and saline was then administered (G2: n=6); a group to which LPS was preadministered and QP peptide was then administered (G3: n=4); a group to which LPS was preadministered and QPA peptide was then administered (G4: n=4); and a group to which LPS was preadministered and T200 peptide was then administered (G5: n=6) (Table 2).
After starting the test, 7 μg of LPS (saline in the case of G1) was intraperitoneally administered. Forty-eight hours later, partial hepatectomy was carried out on all the mice. Another forty-eight hours later, all the surviving mice were subjected to an autopsy. In the autopsy, blood was collected. Thereafter, 1 to 3 mice from each group were subjected to systemic perfusion with 4% paraformaldehyde (PFA), and the liver was then excised. All the excised lobes were embedded in an embedding agent “Tissue Mount” in a frozen state. On the other hand, the remaining 1 to 3 mice from each group were not subjected to systemic perfusion, and a portion of the liver was fixed with formalin, and the remaining portion was collected to be used as a frozen sample (used for mRNA and for protein quantitation). The organ that had been fixed with formalin was processed into a block, and it was then preserved together with the frozen sample in a deep freezer at −80° C.
Preparation method: A small amount of saline was added to one vial container that contained 5 mg of LPS, and it was then dissolved therein. Subsequently, the resultant solution was transferred into another container, and saline was then gradually added thereto to a total amount of 5 mL. The thus obtained solution was defined as a 1 μg/μL solution. 350 μL was collected from the obtained solution by precise weighing, and it was then added to a container that contained 4.65 mL of a sterilized normal saline solution (solvent). Thereafter, the mixed solution was filtrated and sterilized using a 0.22-μm filter, and the resultant was used as a sample to be administered. 7.2 LPS Administration Method Dose: 7 μg/head Administration route: intraperitoneal administration Administration volume: 0.1 mL/head Administration number: once (single administration) Administration timing: 48 hours before partial hepatectomy Target animal: G2 to G5 (To G1, saline was administered.) 8. Administration of Test Substance 8.1 Preparation of Peptide-Administering Sample Preparation frequency: once Preparation method: A peptide was dissolved in saline to a concentration of 2 mg/ml, and the resultant was used as a sample to be administered. Preservation method: The sample was preserved in a refrigerator before use. (The temperature was set at 4° C.) 8.2 Peptide Administration Method Dose: 200 μg/head Administration route: intravenous administration Administration volume: 0.11 mL/head Administration timing: 50, 38, 24, 14 and 2 hours before, and 10, 24 and 34 after partial hepatectomy Number of administration: twice/day, for 4 days (in principle, at 9:00 and at 19:00), 8 times in total Target animal: […] (To G1 and G2, saline was administered.) 9. Partial Hepatectomy (⅔ Partial Hepatectomy; PH) 9.1 Treating Method
Using a rotary microtome (Leica), a hepatic tissue section with a thickness of 5 μm was prepared from the embedded hepatic tissues. A proliferating cell nuclear antigen (PCNA; a proliferating cell marker) was stained according to the previously reported method (Greenwell A. et al., Cancer Lett 1991; 59: 251-256) using a Histofine kit (Nichirei Corporation). […]

plasma kallikrein = molecular target: T1, plasma kallikrein (Homo sapiens, UniProt P03952); test: Cleavage of recombinant human LAP by plasma kallikrein, Western blot semi-quantitative analysis; assay type: biochemical; settings: Example 3, peptide 2.5 mg/ml, 37° C., 40 minutes, FIG. 6
T1 construct: purchased SIGMA
T1 sequence (P03952 20-638, species assumed): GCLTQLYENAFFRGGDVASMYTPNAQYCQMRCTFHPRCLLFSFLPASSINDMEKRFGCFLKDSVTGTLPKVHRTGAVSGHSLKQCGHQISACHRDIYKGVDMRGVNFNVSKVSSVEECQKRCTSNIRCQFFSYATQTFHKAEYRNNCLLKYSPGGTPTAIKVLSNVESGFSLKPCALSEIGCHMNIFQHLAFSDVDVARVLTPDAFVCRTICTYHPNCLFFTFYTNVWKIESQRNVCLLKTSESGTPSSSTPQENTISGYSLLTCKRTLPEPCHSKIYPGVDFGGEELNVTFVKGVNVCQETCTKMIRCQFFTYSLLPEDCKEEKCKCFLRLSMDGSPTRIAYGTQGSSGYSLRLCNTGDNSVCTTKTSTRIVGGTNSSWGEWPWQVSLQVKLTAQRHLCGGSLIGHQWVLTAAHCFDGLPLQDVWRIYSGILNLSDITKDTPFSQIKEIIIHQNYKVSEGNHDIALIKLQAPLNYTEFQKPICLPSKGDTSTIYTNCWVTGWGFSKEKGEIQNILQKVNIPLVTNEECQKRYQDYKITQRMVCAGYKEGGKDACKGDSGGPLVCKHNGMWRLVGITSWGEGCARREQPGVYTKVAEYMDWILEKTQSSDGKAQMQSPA
Method: When 2 μg of recombinant human LAP R & D) (final concentration: 66 μg/ml) was incubated with plasma kallikrein (SIGMA; final concentration of 20 μg/ml), QP peptide, QPA peptide, T200 peptide, and QPQ peptide (SEQ ID NO: 4) were added thereto at a final concentration of 2.5 mg/ml, followed by incubation at 37° C. for 40 minutes. Thereafter, electrophoresis (room temperature, 27 mA, 50 minutes) was carried out using 13.5% polyacrylamide gel, so as to separate LAP (molecular weight: 41 kDa), a LAP degradation product (molecular weight: 38 kDa), and BSA (final concentration: 0.3 mg/ml; molecular weight: […]) used as an additive. Each separated protein or decomposed product was transferred onto a PVDF membrane by using a semi-dry transferring apparatus. According to the method of Akita et al. (Gastroenterology 123; 352-364, 2002), the membrane was then incubated first with a mouse anti-LAP monoclonal antibody (R & D) at a final concentration of 5 μg/ml or a mouse anti-L59 cleavage section-recognizing monoclonal antibody (homemade; International Publication WO2005/023870) at a final concentration of 20 μg/ml, at room temperature for 60 minutes, and then with a horseradish peroxidase-conjugated goat anti-mouse second antibody (Jackson ImmunoResearch Laboratories) at a final concentration of 1 μg/ml at room temperature for 60 minutes. Bands were then developed using an ECL plus reagent (GE Healthcare), so as to carry out the semi-quantitative analysis of the influence of each peptide on the attenuation of LAP band and the generation of LAP degradation product (FIG. 6).

[2] = test system: endotoxin (LPS)-preadministered partially-hepatectomized mice; test: LPS-preadministered partially-hepatectomized mice model for impaired liver regeneration, PCNA staining; assay type: in vivo, mouse; settings: Example 2, 200 μg/head i.v., 8 times; for improvement of impaired liver regeneration due to preadministration of LPS: PCNA staining, FIG. 3 and 4

Substance	percentage of PCNA positive cells [1]	improvement of impaired liver regeneration caused by preadministration of LPS [1]	inhibition of LAP cleavage reaction (attenuation of LAP band, generation of LAP degradation product) (plasma kallikrein)	percentage of PCNA positive cells ([2]; 48 hours after PH, FIG. 4)	improvement of impaired liver regeneration due to preadministration of LPS [2]	improvement of impaired liver regeneration due to preadministration of LPS ([2]; listed as P200 peptide)
N-52QILSAAAAASP62-C (QILSAAALASP) [QPA peptide, mutant of QP peptide with Lys56, Leu57, Arg58 and Leu59 substituted with Ala]	70%	significantly improved	only a weak inhibitory effect	47%	significantly improved	–
N-52QILSQQQQASP62-C [QPQ peptide, mutant of QP peptide with Lys56, Leu57, Arg58 and Leu59 substituted with Gln]	64%	significantly improved	more strongly than the QP peptide	–	–	–
QILSKLRLASP [QP peptide]	66%	significantly improved	significantly inhibited	–	significantly improved; also recorded: completely improved	–
TGVVRQWLSRG [T200 peptide, reference compound]	45%	did not exhibit such an improving effect	only a weak inhibitory effect	–	did not exhibit such an improving effect	did not exhibited any such improving effects
